In PubChem BioAssay AID504680 (Sanford-Burnham Center for Chemical Genomics, 2011):
Active and inactive are the calls of the source.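 The calls were made as follows: active = IC50 below 100 µM in the TR-FRET assay, unless also active in the caspase-3 counter assay; inactive = the rest, including compounds also active in caspase-3.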

molecular target: Caspase-3 (Homo sapiens) (UniProt P42574); experiment: inhibition of recombinant caspase-3 activity – biochemical, luminescence, Caspase-Glo 3/7, counter-screen for UBC13 polyubiquitin inhibitor project, SAR follow-up (AID 504680); conditions: recombinant caspase-3, Caspase-Glo luminescence, 60 min
Sequence (P42574 whole entry, looked up): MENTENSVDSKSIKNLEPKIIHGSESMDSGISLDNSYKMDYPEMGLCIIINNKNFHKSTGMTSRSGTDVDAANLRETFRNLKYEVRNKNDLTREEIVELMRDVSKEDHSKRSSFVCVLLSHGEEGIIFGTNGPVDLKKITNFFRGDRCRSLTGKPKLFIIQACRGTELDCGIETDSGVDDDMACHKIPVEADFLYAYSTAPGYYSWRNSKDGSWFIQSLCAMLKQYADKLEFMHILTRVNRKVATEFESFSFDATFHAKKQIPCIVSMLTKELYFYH

Row | SMILES | IC50
1 | Cc1ccc2nc(N(CCCN(C)C)C(=O)c3ccc(S(=O)(=O)N4CCc5ccccc5C4)cc3)sc2c1 | > 100 µM (inactive)
2 | COc1cc(/C=C/c2cc[n+](C)cc2)ccc1OCC(=O)Nc1ccc(Cl)c(Cl)c1 | > 100 µM (inactive)
3 | CCCCOC(=O)c1cccc(NC(=O)CCCCCN2C(=O)c3ccccc3C2=O)c1 | > 100 µM (inactive)
4 | O=C(CCCCCN1C(=O)c2ccccc2C1=O)NCCc1nc2ccccc2[nH]1 | > 100 µM (inactive)
5 | Cc1ccc2c(c1)C1CN(C)CCC1N2C(=O)CCCN1C(=O)c2cccc3cccc(c23)C1=O (configuration not stated) | > 100 µM (inactive)
6 | O=C(NCC1CCN(Cc2ccc(F)cc2)CC1)C1CCCN(c2ncnc3c2nc2n3CCCCC2)C1 (configuration not stated) | > 100 µM (inactive)
7 | CC1CCCCN1C(=O)C1CCN(c2ncnc3c2nc2n3CCCCC2)CC1 (configuration not stated) | > 100 µM (inactive)
8 | CCOc1cccc2sc(N(CCCN(C)C)C(=O)c3ccc(S(=O)(=O)N4CCc5ccccc5C4)cc3)nc12 | > 100 µM (inactive)
9 | CC(C)(C)c1ccc(OCC(O)CN2CCN(CCN3C(=O)c4cccc5cccc(c45)C3=O)CC2)cc1 (configuration not stated) | > 100 µM (inactive)
10 | CN(C)CCCN(C(=O)c1ccc(S(=O)(=O)N2CCCCC2)cc1)c1nc2cc3c(cc2s1)OCO3 | > 100 µM (inactive)
11 | O=C(CCCCCN1C(=O)c2ccccc2C1=O)N1CCN(c2ccc([N+](=O)[O-])cc2)CC1 | > 100 µM (inactive)
12 | O=C(NCC1CCN(Cc2cccc(Cl)c2)CC1)C1CCCN(c2ncnc3c2nc2n3CCCCC2)C1 (configuration not stated) | > 100 µM (inactive)
13 | COc1ccc(CCNC(=O)CCCCCN2C(=O)c3ccccc3C2=O)cc1OC | > 100 µM (inactive)
14 | O=C(C1CCN(c2ncnc3c2nc2n3CCCCC2)CC1)N1CCN(Cc2ccccc2)CC1 | > 100 µM (inactive)
15 | O=C(NCC1CCN(Cc2ccc(Cl)cc2)CC1)C1CCCN(c2ncnc3c2nc2n3CCCCC2)C1 (configuration not stated) | > 100 µM (inactive)
16 | Cc1cc(C)c2sc(N(CCCN(C)C)C(=O)c3ccc(S(=O)(=O)N(C)C4CCCCC4)cc3)nc2c1 | > 100 µM (inactive)
17 | Cc1cccc(OCC(O)CN2CCN(CCN3C(=O)c4cccc5cccc(c45)C3=O)CC2)c1C (configuration not stated) | > 100 µM (inactive)
18 | CCOc1ccc2nc(N(CCCN(C)C)C(=O)c3ccc(S(=O)(=O)N4CCc5ccccc5C4)cc3)sc2c1 | > 100 µM (inactive)
19 | COC(=O)c1ccc(OCC(O)CN2CCN(CCN3C(=O)c4cccc5cccc(c45)C3=O)CC2)cc1 (configuration not stated) | > 100 µM (inactive)
20 | CC1CN(S(=O)(=O)c2ccc(NC(=O)CCCCCN3C(=O)c4ccccc4C3=O)cc2)CC(C)O1 (configuration not stated) | > 100 µM (inactive)
21 | COc1ccccc1NC(=S)NC(=O)CCCCCN1C(=O)c2ccccc2C1=O | > 100 µM (inactive)

Row | SMILES | IC50
22 | CCN(Cc1ccccc1)S(=O)(=O)c1ccc(C(=O)N(CCCN(C)C)c2nc3cc(C)cc(C)c3s2)cc1 | > 100 µM (inactive)
23 | O=C1c2cccc3cccc(c23)C(=O)N1CCN1CCN(CC(O)COc2ccc(C3CCCCC3)cc2)CC1 (configuration not stated) | > 100 µM (inactive)
24 | CN(C)CCCN(C(=O)c1ccc(C(=O)c2ccccc2)cc1)c1nc2cc3c(cc2s1)OCCO3 | > 100 µM (inactive)
25 | O=C(NCCCN1CCCCC1)C1CCN(c2ncnc3c2nc2n3CCCCC2)CC1 | > 100 µM (inactive)
26 | O=C(CCCCCN1C(=O)c2ccccc2C1=O)Nc1ccc(S(=O)(=O)Nc2ncccn2)cc1 | > 100 µM (inactive)
27 | O=C1c2cccc3cccc(c23)C(=O)N1CCN1CCN(CC(O)COCc2ccc(Cl)cc2)CC1 (configuration not stated) | > 100 µM (inactive)
28 | O=C1c2cccc3cccc(c23)C(=O)N1CCN1CCN(CC(O)COc2ccc3ccccc3c2)CC1 (configuration not stated) | > 100 µM (inactive)
29 | O=C(CCCCCN1C(=O)c2ccccc2C1=O)NCc1ccco1 | > 100 µM (inactive)
30 | Cc1cc(OCC(O)CN2CCN(CCN3C(=O)c4cccc5cccc(c45)C3=O)CC2)ccc1C(C)C (configuration not stated) | > 100 µM (inactive)
31 | CC(NC(=O)CCCCCN1C(=O)c2ccccc2C1=O)c1nc(-c2ccccc2)no1 (configuration not stated) | > 100 µM (inactive)
32 | CCOc1ccc(NC(=O)Cn2c(=O)n(CCCC(=O)NC3CCN(Cc4ccccc4)CC3)c(=O)c3ccccc32)cc1 | > 100 µM (inactive)
33 | Cc1ccccc1CN1CCC(CNC(=O)C2CCCN(c3ncnc4c3nc3n4CCCCC3)C2)CC1 (configuration not stated) | > 100 µM (inactive)
34 | COc1cccc(NC(=O)CCCCCN2C(=O)c3cccc([N+](=O)[O-])c3C2=O)c1 | > 100 µM (inactive)
35 | O=C(CCCCn1c(=O)c2ccccc2n(Cc2ccccc2)c1=O)NC1CCN(Cc2ccccc2)CC1 | > 100 µM (inactive)
36 | CCN(Cc1ccccc1)S(=O)(=O)c1ccc(C(=O)N(CCCN(C)C)c2nc3cc4c(cc3s2)OCCO4)cc1 | > 100 µM (inactive)
37 | COc1ccc2sc(N(CCCN(C)C)C(=O)c3ccc(S(=O)(=O)N4CCc5ccccc5C4)cc3)nc2c1 | > 100 µM (inactive)
38 | Cc1[nH]c2c(Cl)c(Cl)ccc2c1CCNC(=O)CCCCCN1C(=O)c2ccccc2C1=O | > 100 µM (inactive)
39 | CN(C)CCCn1c(SCC(=O)Nc2nc(-c3cccc(Br)c3)cs2)nc2ccccc2c1=O | > 100 µM (inactive)
40 | COc1ccc(COCC(O)CN2CCC(CN3C(=O)c4cccc5cccc(c45)C3=O)CC2)cc1OC (configuration not stated) | > 100 µM (inactive)
41 | COc1cc2nc(N(CCCN(C)C)C(=O)c3ccc(S(=O)(=O)N4CCc5ccccc5C4)cc3)sc2cc1OC | > 100 µM (inactive)
42 | CC(=O)c1ccccc1OCC(O)CN1CCN(CCN2C(=O)c3cccc4cccc(c34)C2=O)CC1 (configuration not stated) | > 100 µM (inactive)

Row | SMILES | IC50
43 | O=C(CCCCn1c(=O)c2ccccc2n(Cc2ccccc2F)c1=O)NC1CCN(Cc2ccccc2)CC1 | > 100 µM (inactive)
44 | NNC(=O)c1ccc(CN2C(=O)c3cccc4cccc2c34)cc1 | > 100 µM (inactive)
45 | O=C(CCCCCN1C(=O)c2ccccc2C1=O)NCc1ccccc1 | > 100 µM (inactive)
46 | O=C(CCCn1c(=O)c2ccccc2n(Cc2cccc([N+](=O)[O-])c2)c1=O)NC1CCN(Cc2ccccc2)CC1 | > 100 µM (inactive)
47 | Cc1cc(C)c2sc(N(CCCN(C)C)C(=O)c3ccc(S(=O)(=O)N(C)Cc4ccccc4)cc3)nc2c1 | > 100 µM (inactive)
48 | CCCOC(=O)c1ccc(NC(=O)CCCCCN2C(=O)c3ccccc3C2=O)cc1 | > 100 µM (inactive)
49 | CCc1ccc(OCC(O)CN2CCC(CN3C(=O)c4cccc5cccc(c45)C3=O)CC2)cc1 (configuration not stated) | > 100 µM (inactive)
50 | CN(C)CCCN(C(=O)c1ccc(S(=O)(=O)N2CCCCCC2)cc1)c1nc2ccc(Br)cc2s1 | > 100 µM (inactive)
51 | Cc1ccc(NC(=O)C2CCN(c3ncnc4c3nc3n4CCCCC3)CC2)cc1Cl | > 100 µM (inactive)
52 | COc1ccc(C(=O)Nn2c(C)nc3ccccc3c2=O)cc1 | > 100 µM (inactive)
53 | COc1ccc(CCNC(=O)CCCCCN2C(=O)c3ccccc3C2=O)cc1 | > 100 µM (inactive)
54 | O=C(CCCn1c(=O)c2ccccc2n(Cc2ccccc2F)c1=O)NC1CCN(Cc2ccccc2)CC1 | > 100 µM (inactive)
55 | O=C(Nc1ccc(F)c(Cl)c1)C1CCN(c2ncnc3c2nc2n3CCCCC2)CC1 | > 100 µM (inactive)
56 | COc1cccc2sc(N(CCCN(C)C)C(=O)c3ccc(S(=O)(=O)N4CCc5ccccc5C4)cc3)nc12 | > 100 µM (inactive)
57 | CC1CCCC(C)N1CCCNC(=O)C1CCCN(c2ncnc3c2nc2n3CCCCC2)C1 (configuration not stated) | > 100 µM (inactive)
58 | O=C(C1CCN(c2ncnc3c2nc2n3CCCCC2)CC1)N1CCOCC1 | > 100 µM (inactive)
59 | O=C1c2cccc3cccc(c23)N1Cc1ccc(F)cc1 | > 100 µM (inactive)
60 | O=C(CCCCCN1C(=O)c2cccc3cccc(c23)C1=O)NCc1cccnc1 | > 100 µM (inactive)
61 | CC1(C)Cc2c(sc(NC(=O)COc3ccc(Cl)cc3Cl)c2C(N)=O)C(C)(C)N1 | > 100 µM (inactive)
62 | Cc1cc(NC(=O)Cn2c(=O)n(CCCCC(=O)NC3CCN(Cc4ccccc4)CC3)c(=O)c3ccccc32)n[nH]1 | > 100 µM (inactive)
63 | CCOc1cccc2sc(N(CCCN(C)C)C(=O)c3ccc(S(=O)(=O)N(C)Cc4ccccc4)cc3)nc12 | > 100 µM (inactive)

Row | SMILES | IC50
64 | CC(NC(=O)CCCCCN1C(=O)c2cccc([N+](=O)[O-])c2C1=O)c1ccccc1 (configuration not stated) | > 100 µM (inactive)
65 | O=C(C1CCN(c2ncnc3c2nc2n3CCCCC2)CC1)N1CCN(c2ccccn2)CC1 | > 100 µM (inactive)
66 | O=C(CCCCCN1C(=O)c2ccccc2C1=O)Nc1ccc(S(=O)(=O)N2CCCCC2)cc1 | > 100 µM (inactive)
67 | O=C(CCCCCN1C(=O)c2ccccc2C1=O)NCc1ccccn1 | > 100 µM (inactive)
68 | O=C(CCCn1c(=O)c2ccccc2n(Cc2ccc(Cl)cc2)c1=O)NC1CCN(Cc2ccccc2)CC1 | > 100 µM (inactive)
69 | CN(CCNC(=O)C1CCN(c2ncnc3c2nc2n3CCCCC2)CC1)Cc1ccccc1 | > 100 µM (inactive)
70 | Cc1ccccc1OCC(O)CN1CCN(CCN2C(=O)c3cccc4cccc(c34)C2=O)CC1 (configuration not stated) | > 100 µM (inactive)
71 | CN(C)CCCN(C(=O)c1ccc(C(=O)c2ccccc2)cc1)c1nc2cc3c(cc2s1)OCO3 | > 100 µM (inactive)
72 | CCOc1ccc2nc(N(CCCN(C)C)C(=O)c3ccc(C(=O)c4ccccc4)cc3)sc2c1 | > 100 µM (inactive)
73 | Cc1ccccc1NC(=S)NC(=O)CCCCCN1C(=O)c2ccccc2C1=O | > 100 µM (inactive)
74 | COc1ccc2sc(N(CCCN(C)C)C(=O)c3ccc(S(=O)(=O)N(C)Cc4ccccc4)cc3)nc2c1 | > 100 µM (inactive)
75 | O=C(CCCCCN1C(=O)c2cccc([N+](=O)[O-])c2C1=O)NCc1ccccc1 | > 100 µM (inactive)
76 | O=C1c2cccc3cccc(c23)C(=O)N1CCN1CCN(CC(O)COc2ccccc2)CC1 (configuration not stated) | > 100 µM (inactive)
77 | O=C(NCCCN1CCN(c2ccc(F)cc2)CC1)C1CCCN(c2ncnc3c2nc2n3CCCCC2)C1 (configuration not stated) | > 100 µM (inactive)
78 | O=C(c1ccc(S(=O)(=O)N2CCCC2)cc1)N1CCC(CN2C(=O)c3cccc4cccc(c34)C2=O)CC1 | > 100 µM (inactive)
79 | O=C(C1COc2ccccc2O1)N1CCN(CCN2C(=O)c3cccc4cccc(c34)C2=O)CC1 (configuration not stated) | > 100 µM (inactive)
80 | CN(C)CCCN(C(=O)c1ccc(S(=O)(=O)N2CCCCCC2)cc1)c1nc2cc3c(cc2s1)OCCO3 | > 100 µM (inactive)
81 | COCCOC(=O)c1ccc(NC(=O)CCCCCN2C(=O)c3ccccc3C2=O)cc1 | > 100 µM (inactive)
82 | CN(C)CCCN(C(=O)c1ccc2c(c1)CCCC2)c1nc2ccc(Cl)cc2s1 | > 100 µM (inactive)
